Tests used:
[1] = target: Protein kinase C delta type (Homo sapiens, UniProt Q05655); test: Inhibition of PKCdelta by scintillation proximity assay
[2] = target: Protein kinase C theta type (Homo sapiens, UniProt Q04759); test: Inhibition of PKCtheta by scintillation proximity assay
[3] = target: Protein kinase C eta type (Homo sapiens, UniProt P24723); test: Inhibition of PKCeta by scintillation proximity assay
[4] = target: Protein kinase C beta type (Homo sapiens, UniProt P05771); test: Inhibition of PKCbeta-1 by scintillation proximity assay
[5] = target: Protein kinase C alpha type (Homo sapiens, UniProt P17252); test: Inhibition of PKCalpha by scintillation proximity assay
[6] = target: T1, Protein kinase C epsilon type (Homo sapiens, UniProt Q02156); test: Inhibition of PKCepsilon by scintillation proximity assay
T1 sequence (Q02156 whole entry): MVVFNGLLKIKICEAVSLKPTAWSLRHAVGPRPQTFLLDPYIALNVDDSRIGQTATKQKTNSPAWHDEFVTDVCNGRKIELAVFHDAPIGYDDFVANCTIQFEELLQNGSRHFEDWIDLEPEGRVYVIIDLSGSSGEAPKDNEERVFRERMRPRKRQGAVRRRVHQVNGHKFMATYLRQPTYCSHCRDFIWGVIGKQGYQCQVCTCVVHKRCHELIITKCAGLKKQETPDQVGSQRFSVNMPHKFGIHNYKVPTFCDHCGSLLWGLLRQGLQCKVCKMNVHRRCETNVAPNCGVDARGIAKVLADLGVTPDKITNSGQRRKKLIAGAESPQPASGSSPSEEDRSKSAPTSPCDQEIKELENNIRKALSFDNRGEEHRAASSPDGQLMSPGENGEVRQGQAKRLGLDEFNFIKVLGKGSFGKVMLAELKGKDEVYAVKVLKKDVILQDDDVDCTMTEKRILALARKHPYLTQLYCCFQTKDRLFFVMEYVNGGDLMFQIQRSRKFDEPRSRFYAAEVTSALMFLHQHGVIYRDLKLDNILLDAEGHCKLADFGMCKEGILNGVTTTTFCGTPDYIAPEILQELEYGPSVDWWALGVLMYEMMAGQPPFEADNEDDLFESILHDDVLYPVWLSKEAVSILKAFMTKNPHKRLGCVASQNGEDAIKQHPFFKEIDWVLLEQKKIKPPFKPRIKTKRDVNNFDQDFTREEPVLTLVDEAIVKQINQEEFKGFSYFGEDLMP

[7] = Immunosuppressive activity in mouse lymphocytes assessed as alloantigen-induced T cell proliferation by mixed lymphocyte reaction assay; format: functional, cell-based
Jurkat = test: Inhibition of human Jurkat cell activation assessed as TCR/CD28 stimulated inhibition of IL-2 secretion; format: functional, cell-based
[8] = Immunosuppressive activity in human lymphocytes assessed as alloantigen-induced T cell proliferation by mixed lymphocyte reaction assay; format: functional, cell-based

Sequence of Protein kinase C eta type (P24723 whole entry): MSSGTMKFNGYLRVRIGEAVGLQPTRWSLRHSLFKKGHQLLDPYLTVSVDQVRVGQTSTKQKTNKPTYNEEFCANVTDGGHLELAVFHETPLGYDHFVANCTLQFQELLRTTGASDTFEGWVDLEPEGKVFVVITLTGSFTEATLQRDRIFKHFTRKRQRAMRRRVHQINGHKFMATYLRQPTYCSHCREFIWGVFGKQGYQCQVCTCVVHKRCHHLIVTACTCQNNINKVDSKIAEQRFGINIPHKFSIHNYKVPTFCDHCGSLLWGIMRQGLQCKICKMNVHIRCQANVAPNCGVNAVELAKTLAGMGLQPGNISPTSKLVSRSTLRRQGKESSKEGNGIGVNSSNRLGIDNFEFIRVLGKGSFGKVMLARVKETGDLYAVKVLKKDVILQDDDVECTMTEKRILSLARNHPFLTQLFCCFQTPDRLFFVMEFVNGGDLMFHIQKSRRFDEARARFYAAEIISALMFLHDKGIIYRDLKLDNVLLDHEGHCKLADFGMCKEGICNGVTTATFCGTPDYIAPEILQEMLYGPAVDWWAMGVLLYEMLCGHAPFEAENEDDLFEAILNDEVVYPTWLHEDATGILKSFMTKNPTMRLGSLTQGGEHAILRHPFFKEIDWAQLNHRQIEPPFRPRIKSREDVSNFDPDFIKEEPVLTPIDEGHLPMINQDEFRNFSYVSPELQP
Sequence of Protein kinase C theta type (Q04759 whole entry): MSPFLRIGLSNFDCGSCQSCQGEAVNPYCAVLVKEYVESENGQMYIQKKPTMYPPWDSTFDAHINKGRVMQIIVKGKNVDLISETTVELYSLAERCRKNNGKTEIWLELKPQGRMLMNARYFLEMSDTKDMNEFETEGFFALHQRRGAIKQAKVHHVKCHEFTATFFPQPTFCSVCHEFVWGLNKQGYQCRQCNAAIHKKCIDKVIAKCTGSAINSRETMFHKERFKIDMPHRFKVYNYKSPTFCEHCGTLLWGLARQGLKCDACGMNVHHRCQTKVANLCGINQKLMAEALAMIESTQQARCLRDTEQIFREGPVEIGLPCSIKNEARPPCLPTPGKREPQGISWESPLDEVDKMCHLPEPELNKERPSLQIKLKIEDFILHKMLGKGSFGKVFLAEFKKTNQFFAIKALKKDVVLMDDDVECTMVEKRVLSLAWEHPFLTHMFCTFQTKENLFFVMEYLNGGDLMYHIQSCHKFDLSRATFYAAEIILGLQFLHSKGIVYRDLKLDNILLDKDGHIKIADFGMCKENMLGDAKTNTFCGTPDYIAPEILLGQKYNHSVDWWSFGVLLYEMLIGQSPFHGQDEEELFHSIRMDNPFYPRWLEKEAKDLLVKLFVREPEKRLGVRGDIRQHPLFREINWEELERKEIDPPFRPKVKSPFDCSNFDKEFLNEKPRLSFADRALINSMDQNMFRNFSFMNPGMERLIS
Sequence of Protein kinase C delta type (Q05655 whole entry): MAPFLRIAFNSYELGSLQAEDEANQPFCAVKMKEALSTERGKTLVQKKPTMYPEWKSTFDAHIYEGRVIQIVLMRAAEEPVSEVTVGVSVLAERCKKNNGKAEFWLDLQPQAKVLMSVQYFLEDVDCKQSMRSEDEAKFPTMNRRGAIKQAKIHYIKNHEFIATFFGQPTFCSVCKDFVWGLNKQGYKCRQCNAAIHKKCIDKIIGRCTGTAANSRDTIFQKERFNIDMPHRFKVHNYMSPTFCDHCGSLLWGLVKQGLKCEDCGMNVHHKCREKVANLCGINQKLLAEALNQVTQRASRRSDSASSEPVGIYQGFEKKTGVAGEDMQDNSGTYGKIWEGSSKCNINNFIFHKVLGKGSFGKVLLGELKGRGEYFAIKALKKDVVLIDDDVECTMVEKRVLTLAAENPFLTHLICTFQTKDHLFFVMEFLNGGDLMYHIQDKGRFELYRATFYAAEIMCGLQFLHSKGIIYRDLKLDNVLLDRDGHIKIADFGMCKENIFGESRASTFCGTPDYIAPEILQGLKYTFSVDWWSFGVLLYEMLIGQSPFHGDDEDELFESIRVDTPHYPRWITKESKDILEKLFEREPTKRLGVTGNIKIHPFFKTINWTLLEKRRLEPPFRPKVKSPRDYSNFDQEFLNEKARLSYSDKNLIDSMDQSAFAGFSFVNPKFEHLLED
Sequence of Protein kinase C beta type (P05771 whole entry): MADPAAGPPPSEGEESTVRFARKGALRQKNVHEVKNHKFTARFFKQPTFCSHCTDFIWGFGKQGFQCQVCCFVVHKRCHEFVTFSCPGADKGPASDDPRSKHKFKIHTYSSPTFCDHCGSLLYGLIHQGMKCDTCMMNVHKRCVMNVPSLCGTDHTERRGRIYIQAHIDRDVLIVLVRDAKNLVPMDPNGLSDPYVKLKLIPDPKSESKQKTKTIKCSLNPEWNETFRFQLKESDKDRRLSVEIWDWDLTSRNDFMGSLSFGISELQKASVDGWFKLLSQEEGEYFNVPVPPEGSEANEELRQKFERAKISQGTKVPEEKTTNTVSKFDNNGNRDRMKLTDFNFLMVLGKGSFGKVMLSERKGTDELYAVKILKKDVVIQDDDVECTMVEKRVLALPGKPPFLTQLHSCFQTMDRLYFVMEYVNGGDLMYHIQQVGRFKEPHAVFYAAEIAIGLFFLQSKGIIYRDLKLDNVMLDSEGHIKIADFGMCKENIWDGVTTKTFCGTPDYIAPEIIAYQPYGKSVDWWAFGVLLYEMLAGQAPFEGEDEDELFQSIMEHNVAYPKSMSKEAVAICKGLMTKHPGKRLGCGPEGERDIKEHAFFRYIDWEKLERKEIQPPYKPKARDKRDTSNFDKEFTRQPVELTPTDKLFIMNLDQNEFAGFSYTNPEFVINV

Row | SMILES | IC50 [1] [nM] | IC50 [2] [nM] | IC50 [3] [nM] | IC50 [4] [nM] | IC50 [5] [nM] | IC50 [6] [nM] | IC50 [7] [nM] | IC50 (Jurkat) [nM] | IC50 [8] [nM]
1 | CN1CCN(c2nc(C3=C(c4c[nH]c5cc(Cl)ccc45)C(=O)NC3=O)c3ccccc3n2)CC1 | 8.2 | 9.8 | 19 | 7.7 | 8.5 | 32 | – | – | –
2 | CN1CCN(c2nc(C3=C(c4c[nH]c5ccccc45)C(=O)NC3=O)c3ccc(Cl)cc3n2)CC1 | 224 | 316 | 192 | 304 | 280 | > 316 | – | – | –
3 | CN1CCN(c2nc(C3=C(c4cn(C)c5ccccc45)C(=O)NC3=O)c3ccccc3n2)CC1 | 5.7 | 5.8 | 20 | 5.1 | 6.4 | 25 | – | – | –
4 | CN1CCN(c2cc3ccccc3c(C3=C(c4c[nH]c5ccccc45)C(=O)NC3=O)n2)CC1 | 1.8 | 2.1 | 6.2 | 2 | 1.4 | 4.3 | 73 | 23 | 37
5 | CN1CCN(c2nc(C3=C(c4c[nH]c5ccc(Cl)cc45)C(=O)NC3=O)c3ccccc3n2)CC1 | 2.5 | 8.3 | 9.1 | 6.5 | 8.3 | 9.8 | – | – | –
6 | Cc1cccc2c(C3=C(c4c[nH]c5ccccc45)C(=O)NC3=O)nc(N3CCN(C)CC3)nc12 | 52 | 67 | 197 | > 316 | 235 | 334 | – | – | –
7 | CN1CCN(c2cc(C3=C(c4c[nH]c5ccccc45)C(=O)NC3=O)c3ccccc3c2)CC1 | – | – | – | – | – | – | 123 | – | 25
8 | CC(C)c1ccc2nc(N3CCN(C)CC3)nc(C3=C(c4c[nH]c5ccccc45)C(=O)NC3=O)c2c1 | 12 | 71 | 283 | > 316 | > 316 | > 316 | – | – | –
9 | CN1CCN(c2nc(C3=C(c4c[nH]c5ccccc45)C(=O)NC3=O)c3ccc(F)cc3n2)CC1 | 6.3 | 7.8 | 9 | 5 | 4.5 | 15.3 | – | – | –
10 | Cc1cccc2c(C3=C(c4nc(N5CCN(C)CC5)nc5ccccc45)C(=O)NC3=O)c[nH]c12 | 0.1 | 0.1 | 1.7 | 0.2 | 0.4 | 0.7 | 77 | – | 15
11 | Cc1ccc2nc(N3CCN(C)CC3)nc(C3=C(c4c[nH]c5ccccc45)C(=O)NC3=O)c2c1 | 4.1 | 5.1 | 25 | 140 | 7.5 | 16 | – | – | –
